Measurements reported in ChEMBL document CHEMBL3351803, “5Z-7-Oxozeaenol covalently binds to MAP2K7 at Cys218 in an unprecedented manner” (Bioorg Med Chem Lett, 2015).

Legend:
[1] = target: T1, Dual specificity mitogen-activated protein kinase kinase 7 (Homo sapiens, UniProt O14733); assay: Inhibition of MAP2K7 (unknown origin) using unphosphorylated GST-tagged JNK1 substrate protein assessed as phosphorylation by ELISA
T1 sequence (O14733 whole entry): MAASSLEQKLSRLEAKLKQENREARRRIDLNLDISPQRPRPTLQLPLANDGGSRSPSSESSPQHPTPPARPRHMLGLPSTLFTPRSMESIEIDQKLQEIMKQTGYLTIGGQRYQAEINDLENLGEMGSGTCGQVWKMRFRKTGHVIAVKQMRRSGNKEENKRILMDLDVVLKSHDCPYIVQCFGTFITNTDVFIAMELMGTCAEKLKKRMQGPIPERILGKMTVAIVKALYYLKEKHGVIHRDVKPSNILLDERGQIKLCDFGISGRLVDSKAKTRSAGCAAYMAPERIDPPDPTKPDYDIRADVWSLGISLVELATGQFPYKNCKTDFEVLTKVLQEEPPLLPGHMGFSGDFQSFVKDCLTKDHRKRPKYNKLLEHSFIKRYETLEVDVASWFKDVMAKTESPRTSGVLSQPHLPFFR

[2] = target: Dual specificity mitogen-activated protein kinase kinase 1 (Homo sapiens, UniProt Q02750); assay: Inhibition of MAP2K1 (unknown origin) using unphosphorylated GST-tagged ERK2 substrate protein assessed as phosphorylation by ELISA
[3] = target: Mitogen-activated protein kinase 1 (Homo sapiens, UniProt P28482); assay: Inhibition of ERK2 (unknown origin) using FITC-labeled substrate peptide assessed as phosphorylation
Mitogen-activated protein kinase 1, sequence (P28482 whole entry): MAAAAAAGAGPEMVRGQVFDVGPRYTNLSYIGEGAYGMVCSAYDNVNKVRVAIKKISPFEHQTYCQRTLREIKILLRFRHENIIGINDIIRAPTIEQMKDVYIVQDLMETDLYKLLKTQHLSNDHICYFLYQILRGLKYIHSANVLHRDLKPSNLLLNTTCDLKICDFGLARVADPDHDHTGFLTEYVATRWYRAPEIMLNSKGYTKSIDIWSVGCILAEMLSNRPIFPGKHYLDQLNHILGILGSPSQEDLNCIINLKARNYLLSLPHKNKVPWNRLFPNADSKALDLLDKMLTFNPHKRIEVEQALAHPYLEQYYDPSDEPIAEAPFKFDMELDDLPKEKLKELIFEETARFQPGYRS

Dual specificity mitogen-activated protein kinase kinase 1, sequence (Q02750 whole entry): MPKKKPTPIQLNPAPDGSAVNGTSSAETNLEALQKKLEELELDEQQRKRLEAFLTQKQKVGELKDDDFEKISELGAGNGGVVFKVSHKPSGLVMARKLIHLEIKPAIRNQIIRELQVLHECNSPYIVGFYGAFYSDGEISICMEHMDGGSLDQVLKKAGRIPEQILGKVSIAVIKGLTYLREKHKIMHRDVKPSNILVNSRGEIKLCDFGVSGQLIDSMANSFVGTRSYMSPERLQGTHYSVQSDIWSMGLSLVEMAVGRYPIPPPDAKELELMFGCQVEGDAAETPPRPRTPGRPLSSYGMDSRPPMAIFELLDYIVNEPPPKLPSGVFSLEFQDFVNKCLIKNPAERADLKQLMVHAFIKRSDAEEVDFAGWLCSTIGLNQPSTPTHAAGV

COc1cc(O)c2c(c1)/C=C/C[C@H](O)[C@H](O)C(=O)/C=C\C[C@H](C)OC2=O
IC50 [1]: 1300 nM
IC50 [2]: 80 nM
IC50 [3]: 6800 nM
